Test results as given in the NIST ThermoML archive (doi:10.1016/j.jct.2016.07.005).

Experiment: xn = mol fraction of the nth substance listed
Details: 100 kPa, Liquid; for viscosity: Concentric cylinders viscometry; for mass density: Vibrating tube method

CN1CCC[C@H]1c1cccnc1 [(-)-3-(N-methylpyrrolidino)pyridine] + CC(O)CO
Details	mass density [kg/m3]	viscosity [mPa·s]
293.15 K, x1 = 0.1	1035.04	59.35
293.15 K, x1 = 0.2009	1033.1	53.52
293.15 K, x1 = 0.3	1030.49	44.85
293.15 K, x1 = 0.4016	1027.64	35.02
293.15 K, x1 = 0.5	1024.73	26.04
293.15 K, x1 = 0.6005	1021.54	18.44
293.15 K, x1 = 0.7	1018.73	12.89
293.15 K, x1 = 0.7983	1015.98	9.269
293.15 K, x1 = 0.9	1012.96	6.875
293.15 K, x1 = 1	1010.23	4.694
298.15 K, x1 = 0.1	1031.1	43.28
298.15 K, x1 = 0.2009	1029.06	38.88
298.15 K, x1 = 0.3	1026.32	32.72
298.15 K, x1 = 0.4016	1023.44	25.84
298.15 K, x1 = 0.5	1020.54	19.6
298.15 K, x1 = 0.6005	1017.36	14.25
298.15 K, x1 = 0.7	1014.59	10.27
298.15 K, x1 = 0.7983	1011.83	7.576
298.15 K, x1 = 0.9	1008.87	5.707
298.15 K, x1 = 1	1006.16	4.048
303.15 K, x1 = 0.1	1027.18	32.21
303.15 K, x1 = 0.2009	1025	28.85
303.15 K, x1 = 0.3	1022.19	24.37
303.15 K, x1 = 0.4016	1019.27	19.44
303.15 K, x1 = 0.5	1016.35	14.99
303.15 K, x1 = 0.6005	1013.17	11.16
303.15 K, x1 = 0.7	1010.42	8.284
303.15 K, x1 = 0.7983	1007.68	6.286
303.15 K, x1 = 0.9	1004.77	4.834
303.15 K, x1 = 1	1002.1	3.518
308.15 K, x1 = 0.1	1023.28	24.46
308.15 K, x1 = 0.2009	1020.91	21.87
308.15 K, x1 = 0.3	1018.08	18.56
308.15 K, x1 = 0.4016	1015.09	14.98
308.15 K, x1 = 0.5	1012.14	11.73
308.15 K, x1 = 0.6005	1008.98	8.935
308.15 K, x1 = 0.7	1006.13	6.791
308.15 K, x1 = 0.7983	1003.54	5.264
308.15 K, x1 = 0.9	1000.64	4.12
308.15 K, x1 = 1	998.055	3.088
313.15 K, x1 = 0.1	1019.3	18.79
313.15 K, x1 = 0.2009	1016.8	16.79
313.15 K, x1 = 0.3	1013.89	14.33
313.15 K, x1 = 0.4016	1010.88	11.69
313.15 K, x1 = 0.5	1007.92	9.302
313.15 K, x1 = 0.6005	1004.79	7.224
313.15 K, x1 = 0.7	1002.03	5.605
313.15 K, x1 = 0.7983	999.39	4.425
313.15 K, x1 = 0.9	996.55	3.532
313.15 K, x1 = 1	994.014	2.758
318.15 K, x1 = 0.1	1015.29	14.91
318.15 K, x1 = 0.2009	1012.66	13.34
318.15 K, x1 = 0.3	1009.7	11.45
318.15 K, x1 = 0.4016	1006.65	9.438
318.15 K, x1 = 0.5	1003.69	7.62
318.15 K, x1 = 0.6005	1000.58	6.031
318.15 K, x1 = 0.7	997.85	4.779
318.15 K, x1 = 0.7983	995.25	3.839
318.15 K, x1 = 0.9	992.46	3.094
318.15 K, x1 = 1	989.984	2.411
323.15 K, x1 = 0.1	1011.25	12.03
323.15 K, x1 = 0.2009	1008.51	10.78
323.15 K, x1 = 0.3	1005.48	9.306
323.15 K, x1 = 0.4016	1002.41	7.746
323.15 K, x1 = 0.5	999.45	6.339
323.15 K, x1 = 0.6005	996.37	5.104
323.15 K, x1 = 0.7	993.67	4.124
323.15 K, x1 = 0.7983	991.1	3.375
323.15 K, x1 = 0.9	988.38	2.765
323.15 K, x1 = 1	985.962	2.195

CN1CCC[C@H]1c1cccnc1 [(-)-3-(N-methylpyrrolidino)pyridine] + CCC(C)O
Details	mass density [kg/m3]	viscosity [mPa·s]
293.15 K, x1 = 0.1	841.874	3.496
293.15 K, x1 = 0.2036	873.003	3.46
293.15 K, x1 = 0.3	898.284	3.593
293.15 K, x1 = 0.4	921.306	3.845
293.15 K, x1 = 0.5	941.501	4.157
293.15 K, x1 = 0.6	959.218	4.476
293.15 K, x1 = 0.6956	974.099	4.734
293.15 K, x1 = 0.8	988.293	4.907
293.15 K, x1 = 0.9	1000.07	4.909
293.15 K, x1 = 1	1010.23	4.694
298.15 K, x1 = 0.1	837.728	2.96
298.15 K, x1 = 0.2036	868.857	2.981
298.15 K, x1 = 0.3	894.137	3.11
298.15 K, x1 = 0.4	917.159	3.319
298.15 K, x1 = 0.5	937.354	3.566
298.15 K, x1 = 0.6	955.075	3.813
298.15 K, x1 = 0.6956	969.963	4.015
298.15 K, x1 = 0.8	984.171	4.158
298.15 K, x1 = 0.9	995.971	4.179
298.15 K, x1 = 1	1006.16	4.048
303.15 K, x1 = 0.1	833.532	2.521
303.15 K, x1 = 0.2036	864.676	2.579
303.15 K, x1 = 0.3	889.965	2.704
303.15 K, x1 = 0.4	912.993	2.881
303.15 K, x1 = 0.5	933.194	3.08
303.15 K, x1 = 0.6	950.921	3.277
303.15 K, x1 = 0.6956	965.82	3.439
303.15 K, x1 = 0.8	980.047	3.558
303.15 K, x1 = 0.9	991.873	3.591
303.15 K, x1 = 1	1002.1	3.518
308.15 K, x1 = 0.1	829.273	2.162
308.15 K, x1 = 0.2036	860.452	2.244
308.15 K, x1 = 0.3	885.762	2.367
308.15 K, x1 = 0.4	908.808	2.523
308.15 K, x1 = 0.5	929.021	2.691
308.15 K, x1 = 0.6	946.761	2.853
308.15 K, x1 = 0.6956	961.675	2.987
308.15 K, x1 = 0.8	975.925	3.09
308.15 K, x1 = 0.9	987.783	3.128
308.15 K, x1 = 1	998.055	3.088
313.15 K, x1 = 0.1	824.949	1.875
313.15 K, x1 = 0.2036	856.182	1.975
313.15 K, x1 = 0.3	881.53	2.094
313.15 K, x1 = 0.4	904.598	2.232
313.15 K, x1 = 0.5	924.831	2.373
313.15 K, x1 = 0.6	942.588	2.508
313.15 K, x1 = 0.6956	957.521	2.62
313.15 K, x1 = 0.8	971.798	2.713
313.15 K, x1 = 0.9	983.692	2.761
313.15 K, x1 = 1	994.014	2.758
318.15 K, x1 = 0.1	820.559	1.627
318.15 K, x1 = 0.2036	851.865	1.734
318.15 K, x1 = 0.3	877.259	1.848
318.15 K, x1 = 0.4	900.359	1.974
318.15 K, x1 = 0.5	920.616	2.099
318.15 K, x1 = 0.6	938.394	2.214
318.15 K, x1 = 0.6956	953.35	2.308
318.15 K, x1 = 0.8	967.662	2.383
318.15 K, x1 = 0.9	979.601	2.419
318.15 K, x1 = 1	989.984	2.411
323.15 K, x1 = 0.1	816.09	1.434
323.15 K, x1 = 0.2036	847.491	1.55
323.15 K, x1 = 0.3	872.943	1.662
323.15 K, x1 = 0.4	896.089	1.778
323.15 K, x1 = 0.5	916.374	1.888
323.15 K, x1 = 0.6	934.178	1.989
323.15 K, x1 = 0.6956	949.16	2.071
323.15 K, x1 = 0.8	963.511	2.141
323.15 K, x1 = 0.9	975.504	2.183
323.15 K, x1 = 1	985.962	2.195
